Laboratory results from patent US20080114007A1 (priority 2006, published 2008).
Like-named read-outs stand apart in the source and are kept apart here.

Target: CSF-1R (Homo sapiens, UniProt P07333)
Assay: Peptide (non-phosphorylated) assay, fluorescence polarization competition immunoassay
Assay type: biochemical
Details: 308 μM SYEGNSYTFIDPTQ peptide, 1 mM ATP, 80 min, mean of at least three determinations
How it was run: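 Read-out is fluorescence polarization: after EDTA quench, anti-phosphotyrosine antibody plus PTK green tracer compete with the phosphorylated peptide for 30 min. The CSF-1R reaction itself ran 80 min at room temperature after ATP addition. DMSO (4%) wells served as controls, positive controls pre-treated with EDTA.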

[1] = 0.7 nM CSF-1R, read-out: c-fms Peptide IC50

CSF-1R, sequence (P07333 20-972): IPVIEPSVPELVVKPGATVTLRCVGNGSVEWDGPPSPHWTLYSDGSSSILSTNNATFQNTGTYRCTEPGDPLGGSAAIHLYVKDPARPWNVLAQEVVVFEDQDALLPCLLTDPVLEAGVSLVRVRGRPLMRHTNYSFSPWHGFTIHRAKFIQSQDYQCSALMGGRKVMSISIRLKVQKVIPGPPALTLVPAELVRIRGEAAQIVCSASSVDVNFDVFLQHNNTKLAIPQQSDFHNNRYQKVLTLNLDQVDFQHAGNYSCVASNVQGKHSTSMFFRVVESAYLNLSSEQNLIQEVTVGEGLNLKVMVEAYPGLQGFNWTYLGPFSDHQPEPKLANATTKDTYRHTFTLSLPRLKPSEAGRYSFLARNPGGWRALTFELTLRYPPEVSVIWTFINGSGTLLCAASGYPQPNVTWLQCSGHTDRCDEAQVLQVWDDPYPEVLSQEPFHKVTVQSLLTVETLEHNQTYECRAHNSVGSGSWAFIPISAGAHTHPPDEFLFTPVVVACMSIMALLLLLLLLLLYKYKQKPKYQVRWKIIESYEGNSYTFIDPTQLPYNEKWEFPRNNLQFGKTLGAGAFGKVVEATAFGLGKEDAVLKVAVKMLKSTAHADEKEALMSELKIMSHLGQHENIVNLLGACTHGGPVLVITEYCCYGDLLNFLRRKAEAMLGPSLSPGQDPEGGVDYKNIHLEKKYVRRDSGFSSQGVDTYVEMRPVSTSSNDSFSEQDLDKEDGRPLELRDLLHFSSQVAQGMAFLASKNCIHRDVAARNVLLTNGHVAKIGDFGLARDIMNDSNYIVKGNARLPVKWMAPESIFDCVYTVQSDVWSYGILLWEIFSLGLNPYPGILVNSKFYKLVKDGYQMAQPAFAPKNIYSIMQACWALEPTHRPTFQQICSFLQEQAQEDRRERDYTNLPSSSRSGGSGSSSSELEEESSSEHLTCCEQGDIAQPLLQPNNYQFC

Row | IC50 [1] [nM] | IC50 (c-fms Peptide IC50, 0.7 nM CSF-1R) [nM] | SMILES
1 | 5.6 | – | CONC(=O)c1cn(-c2ccc(OC(F)(F)F)cc2)c2nc(Nc3ccc(CCc4n[nH]c(C)n4)cc3)ncc2c1=O [Cpd 191, 2-{4-[2-(5-methyl-1H-[1,2,4]triazol-3-yl)-ethyl]-phenylamino}-5-oxo-8-(4-trifluoromethoxyphenyl)-5,8-dihydropyrido[2,3-d]pyrimidine-6-carboxylic acid methoxy-amide]
2 | – | 0.3 | CCc1ccc(-n2cc(C(=O)NOC)c(=O)c3cnc(Nc4ccc(C5CCN(C)CC5)cc4)nc32)cc1 [Cpd 156, 8-(4-ethyl-phenyl)-2-[4-(1-methyl-piperidin-4-yl)-phenylamino]-5-oxo-5,8-dihydro-pyrido[2,3-d]pyrimidine-6-carboxylic acid methoxy-amide]
3 | 1.5 | – | CONC(=O)c1cn(C2CCCCC2)c2nc(Nc3ccc(C[C@H]4COC(=O)N4)cc3)ncc2c1=O [Cpd 22, (S)-8-cyclohexyl-5-oxo-2-[4-(2-oxo-oxazolidin-4-ylmethyl)-phenylamino]-5,8-dihydro-pyrido[2,3-d]pyrimidine-6-carboxylic acid methoxy-amide]
4 | 2 | – | CONC(=O)c1cn(-c2ccc3c(c2)CCC3)c2nc(Nc3ccc4cc[nH]c4c3)ncc2c1=O [Cpd 289, 8-indan-5-yl-2-(1H-indol-6-ylamino)-5-oxo-5,8-dihydro-pyrido[2,3-d]pyrimidine-6-carboxylic acid methoxy-amide]
5 | 1 | – | CCc1ccc(-n2cc(C(=O)NOC)c(=O)c3cnc(Nc4ccc(OCCCOC)c(OCCCOC)c4)nc32)cc1 [Cpd 323, 2-[3,4-bis-(3-methoxy-propoxy)-phenylamino]-8-(4-ethyl-phenyl)-5-oxo-5,8-dihydro-pyrido[2,3-d]pyrimidine-6-carboxylic acid methoxy-amide]
6 | 4.5 | – | CC(C)NC(=O)c1cn(-c2ccc3c(c2)CCC3)c2nc(Nc3cccc(N4CCNCC4)c3)ncc2c1=O [Cpd 1, 8-indan-5-yl-5-oxo-2-(3-piperazin-1-yl-phenylamino)-5,8-dihydro-pyrido[2,3-d]pyrimidine-6-carboxylic acid isopropylamide]
7 | 0.62 | – | CCc1ccc(-n2cc(C(=O)NOC)c(=O)c3cnc(Nc4ccc(NCCS(C)(=O)=O)cc4)nc32)cc1 [Cpd 217, 8-(4-ethyl-phenyl)-2-[4-(2-methanesulfonyl-ethylamino)-phenylamino]-5-oxo-5,8-dihydro-pyrido[2,3-d]pyrimidine-6-carboxylic acid methoxy-amide]
8 | 2.6 | – | CONC(=O)c1cn(-c2ccc3c(c2)CCC3)c2nc(Nc3ccc(CCN4CCN(CC(F)(F)F)CC4)cc3)ncc2c1=O [Cpd 149, 8-indan-5-yl-5-oxo-2-(4-{2-[4-(2,2,2-trifluoro-ethyl)-piperazin-1-yl]-ethyl}-phenylamino)-5,8-dihydro-pyrido[2,3-d]pyrimidine-6-carboxylic acid methoxy-amide]
9 | 2.1 | – | CCONC(=O)c1cn(C2CCCCC2)c2nc(Nc3ccc(N4CC(C)NC(C)C4)cc3)ncc2c1=O (stereo not drawn) [Cpd 25, 8-cyclohexyl-2-[4-(3,5-dimethyl-piperazin-1-yl)-phenylamino]-5-oxo-5,8-dihydro-pyrido[2,3-d]pyrimidine-6-carboxylic acid ethoxy-amide]
10 | 10 | – | CONC(=O)c1cn(-c2cnc3c(c2)CCC3)c2nc(Nc3ccc(CCO)cc3)ncc2c1=O [Cpd 227, 8-(6,7-dihydro-5H-[1]pyrindin-3-yl)-2-[4-(2-hydroxy-ethyl)-phenylamino]-5-oxo-5,8-dihydro-pyrido[2,3-d]pyrimidine-6-carboxylic acid methoxy-amide]
11 | 0.84 | – | CONC(=O)c1cn(-c2ccc3c(c2)CCC3)c2nc(Nc3ccc(CCN4CCC5(CC4)OCCCO5)cc3)ncc2c1=O [Cpd 73, 2-{4-[2-(1,5-dioxa-9-aza-spiro[5.5]undec-9-yl)-ethyl]-phenylamino}-8-indan-5-yl-5-oxo-5,8-dihydro-pyrido[2,3-d]pyrimidine-6-carboxylic acid methoxy-amide]
12 | 6.6 | – | NC(=O)c1cn(-c2ccc3c(c2)CCC3)c2nc(Nc3ccc(C(=O)N4CCCC4)cc3)ncc2c1=O [Cpd 122, 8-indan-5-yl-5-oxo-2-[4-(pyrrolidine-1-carbonyl)-phenylamino]-5,8-dihydro-pyrido[2,3-d]pyrimidine-6-carboxylic acid amide]
13 | 2 | – | CONC(=O)c1cn(-c2ccc3c(c2)CCC3)c2nc(Nc3ccc(Cc4nnn[nH]4)cc3)ncc2c1=O [Cpd 91, 8-indan-5-yl-5-oxo-2-[4-(1H-tetrazol-5-ylmethyl)-phenylamino]-5,8-dihydro-pyrido[2,3-d]pyrimidine-6-carboxylic acid methoxy-amide]
14 | 1.3 | – | CONC(=O)c1cn(-c2ccc3c(c2)CCC3)c2nc(Nc3cccc(CCN4CCN(C)CC4)c3)ncc2c1=O [Cpd 200, 8-indan-5-yl-2-{3-[2-(4-methyl-piperazin-1-yl)-ethyl]-phenylamino}-5-oxo-5,8-dihydro-pyrido[2,3-d]pyrimidine-6-carboxylic acid methoxy-amide]
15 | 0.8 | – | CCc1ccc(-n2cc(C(=O)NOC)c(=O)c3cnc(Nc4ccc5[nH]ccc5c4)nc32)cc1 [Cpd 285, 8-(4-ethyl-phenyl)-2-(1H-indol-5-ylamino)-5-oxo-5,8-dihydro-pyrido[2,3-d]pyrimidine-6-carboxylic acid methoxy-amide]
16 | 0.5 | – | CCc1ccc(-n2cc(C(=O)NOC)c(=O)c3cnc(Nc4cccc(N5CCN(C)CC5)c4)nc32)cc1 [Cpd 321, 8-(4-ethyl-phenyl)-2-[3-(4-methyl-piperazin-1-yl)-phenylamino]-5-oxo-5,8-dihydro-pyrido[2,3-d]pyrimidine-6-carboxylic acid methoxy-amide]
17 | 16 | – | CC(C)ONC(=O)c1cn(-c2ccc3c(c2)CCC3)c2nc(Nc3ccc(S(=O)(=O)N(C)C)cc3)ncc2c1=O [Cpd 137, 2-(4-dimethylsulfamoyl-phenylamino)-8-indan-5-yl-5-oxo-5,8-dihydro-pyrido[2,3-d]pyrimidine-6-carboxylic acid isopropoxy-amide]
18 | 1.4 | – | COCCNCCc1ccc(Nc2ncc3c(=O)c(C(=O)NOC)cn(-c4ccc5c(c4)CCC5)c3n2)cc1 [Cpd 98, 8-indan-5-yl-2-{4-[2-(2-methoxy-ethylamino)-ethyl]-phenylamino}-5-oxo-5,8-dihydro-pyrido[2,3-d]pyrimidine-6-carboxylic acid methoxy-amide]
19 | 0.52 | – | CONC(=O)c1cn(-c2ccc3c(c2)CCC3)c2nc(Nc3ccc(CCN4CC(O)C4)cc3)ncc2c1=O [Cpd 254, 2-{4-[2-(3-hydroxy-azetidin-1-yl)-ethyl]-phenylamino}-8-indan-5-yl-5-oxo-5,8-dihydro-pyrido[2,3-d]pyrimidine-6-carboxylic acid methoxy-amide]
20 | 1.4 | – | CONC(=O)c1cn(-c2ccc3c(c2)CCC3)c2nc(Nc3cccc(C4CCN(C(C)=O)CC4)c3)ncc2c1=O [Cpd 197, 2-[3-(1-acetyl-piperidin-4-yl)-phenylamino]-8-indan-5-yl-5-oxo-5,8-dihydro-pyrido[2,3-d]pyrimidine-6-carboxylic acid methoxy-amide]
21 | 6.5 | – | CCNC(=O)c1cn(-c2ccc3c(c2)CCC3)c2nc(Nc3cccc(CCCN(C)C)c3)ncc2c1=O [Cpd 117, 2-[3-(3-dimethylamino-propyl)-phenylamino]-8-indan-5-yl-5-oxo-5,8-dihydro-pyrido[2,3-d]pyrimidine-6-carboxylic acid ethylamide]
